Reference: article PMC3425516 (PLoS ONE, 2012)
“And” between values parts separate entries of the source, which are not always exact repeats. Equal values may be shown once.

Experiments:
ACHN = assay: NCI-60 cell lines screening; format: cell-based, human; conditions: Renal Cancer panel
Experimental: (§1) The NCI-60 cancer cell lines screening was conducted by the NCI’s Developmental Therapeutics Program (DTP; http://www.dtp.nci.nih.gov/branches/btb/ivclsp.html).

CAKI-1 = assay: NCI-60 cell lines screening; format: cell-based, human; conditions: CAKI-1, Renal Cancer panel
Experimental: as §1

CCRF-CEM = assay: NCI-60 cell lines screening; format: cell-based, human; conditions: Leukemia panel
Experimental: as §1

HCC-2998 = assay: NCI-60 cell lines screening; format: cell-based, human; conditions: HCC-2998, Colon Cancer panel
Experimental: as §1

HOP-62 = assay: NCI-60 cell lines screening; format: cell-based, human; conditions: HOP-62, Non-Small Cell Lung Cancer panel
Experimental: as §1

HT29 = assay: NCI-60 cell lines screening; format: cell-based, human; conditions: HT29, Colon Cancer panel
Experimental: as §1

IGROV1 = assay: NCI-60 cell lines screening; format: cell-based, human; conditions: IGROV1, Ovarian Cancer panel
Experimental: as §1

MALME-3M = assay: NCI-60 cell lines screening; format: cell-based, human; conditions: Melanoma panel
Experimental: as §1

MDA-MB-468 = assay: NCI-60 cell lines screening; format: cell-based, human; conditions: MDA-MB-468, Breast Cancer panel
Experimental: as §1

MOLT-4 = assay: NCI-60 cell lines screening; format: cell-based, human; conditions: MOLT-4, Leukemia panel
Experimental: as §1

OVCAR-5 = assay: NCI-60 cell lines screening; format: cell-based, human; conditions: OVCAR-5, Ovarian Cancer panel
Experimental: as §1

PC-3 = assay: NCI-60 cell lines screening; format: cell-based, human; conditions: PC-3, Prostate Cancer panel
Experimental: as §1

RXF 393 = assay: NCI-60 cell lines screening; format: cell-based, human; conditions: RXF 393, Renal Cancer panel
Experimental: as §1

SF-295 = assay: NCI-60 cell lines screening; format: cell-based, human; conditions: SF-295, CNS Cancer panel
Experimental: as §1

SK-MEL-28 = assay: NCI-60 cell lines screening; format: cell-based, human; conditions: SK-MEL-28, Melanoma panel
Experimental: as §1

SK-MEL-2 = assay: NCI-60 cell lines screening; format: cell-based, human; conditions: SK-MEL-2, Melanoma panel
Experimental: as §1

SW-620 = assay: NCI-60 cell lines screening; format: cell-based, human; conditions: SW-620, Colon Cancer panel
Experimental: as §1

T-47D = assay: NCI-60 cell lines screening; format: cell-based, human; conditions: Breast Cancer panel
Experimental: as §1

U251 = assay: NCI-60 cell lines screening; format: cell-based, human; conditions: U251, CNS Cancer panel
Experimental: as §1

UACC-257 = assay: NCI-60 cell lines screening; format: cell-based, human; conditions: UACC-257, Melanoma panel
Experimental: as §1

HUVEC = assay: Crystal violet cell growth assay; format: cell-based, human
Experimental: The HUVECs were seeded into 96-well culture plates (5000 cells/well) in quadruplicate. After 24 h incubation, cells were fixed with 0.1% crystal violet/20% methanol, representing cell population at the time of drug treatment (T 0). […] After 48 h incubation at 37°C, cells were stained with 0.1% crystal violet/20% methanol for 10 minutes and washed for 3 times.

[1] = tested on: HDACs in HeLa nuclear extracts; assay: HeLa nuclear extract HDAC activity assay; format: biochemical
Experimental: The HeLa nuclear extract HDAC activity was measured by using the HDAC Fluorescent Activity Assay Kit (BioVision, CA, USA) according to manufacturer’s instructions. Briefly, the HDAC fluorometric substrate and assay buffer were added to HeLa nuclear extracts in a 96-well format and incubated at 37°C for 30 min. The reaction was stopped by adding lysine developer, and the mixture was incubated for another 30 min at 37°C. Additional negative controls included incubation without the nuclear extract, without the substrate, or without both. TSA at 1 µM served as the positive control.

[2] = Body weight and adverse effects in xenograft study; format: in vivo, nude mice; conditions: HCT116 xenograft mice, oral daily treatment
Experimental: (A) Tumors were measured regularly and growth delay was calculated for treatment groups relative to control tumors (TGD). (B) Kaplan-Meier survival analysis was based on the tumor growth endpoint. (C) Inhibition of tumor growth curves represented a mean±SEM and percentage change in mean tumor volume (percent TGI). (D) Body weights were measured daily during the first week and then 2 times per week. The body weight ratio was calculated relative to the baseline measurement.
Once a tumor was palpable with the size of approximately 55 mm^3, mice were randomized into vehicle control and treatment groups (8 mice per group). Control mice received the vehicle (0.5% carboxymethyl cellulose +0.1% Tween 80). Tumors in all 3 groups were allowed to reach an endpoint volume of 1,200 mm^3.

recombinant human HDAC1 = recombinant human HDAC1 (Homo sapiens, UniProt Q13547); assay: biochemical
Excerpt: The HDACs in vitro activities of recombinant human HDAC 1, 2, 4, 6 and 8 (BPS Biosciences) were detected by fluorigenic release of 7-amino-4-methylcoumarin from substrate upon deacetylase enzymatic activity.

[3] = Homo sapiens, read-out: LC50 (the source's name)

recombinant human HDAC1, sequence (Q13547 whole entry): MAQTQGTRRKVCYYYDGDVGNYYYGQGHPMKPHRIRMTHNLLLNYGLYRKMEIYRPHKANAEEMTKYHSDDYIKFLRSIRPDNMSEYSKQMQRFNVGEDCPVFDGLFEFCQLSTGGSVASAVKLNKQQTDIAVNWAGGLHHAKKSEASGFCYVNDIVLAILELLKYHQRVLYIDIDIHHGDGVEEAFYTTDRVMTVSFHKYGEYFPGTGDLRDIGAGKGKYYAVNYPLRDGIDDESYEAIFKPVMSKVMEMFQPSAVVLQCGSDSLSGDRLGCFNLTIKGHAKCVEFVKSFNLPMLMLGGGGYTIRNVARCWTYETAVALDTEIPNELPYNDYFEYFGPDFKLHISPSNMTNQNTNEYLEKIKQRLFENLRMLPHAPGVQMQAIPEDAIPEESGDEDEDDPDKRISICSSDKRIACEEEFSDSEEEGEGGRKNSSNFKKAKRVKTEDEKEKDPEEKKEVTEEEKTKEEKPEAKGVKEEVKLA

## O=C(C=Cc1ccc2c(c1)CCN2S(=O)(=O)c1ccccc1)NO [MPT0E028, 3-(1-benzenesulfonyl-2,3-dihydro-1H-indol-5-yl)-N-hydroxy-acrylamide]
ACHN; Homo sapiens
  GI50: 0.167 µM
ACHN; [3]
  CC50: 4.08 µM
ACHN
  TGI: 0.576 µM
CAKI-1
  TGI: 0.959 µM
CAKI-1; Homo sapiens
  GI50: 0.218 µM
CAKI-1; [3]
  CC50: > 100 µM
CCRF-CEM; Homo sapiens
  GI50: 0.165 µM
CCRF-CEM; [3]
  CC50: > 100 µM
CCRF-CEM
  TGI: >100 µM
HCC-2998
  TGI: 0.522 µM
HCC-2998; Homo sapiens
  GI50: 0.194 µM
HCC-2998; [3]
  CC50: 2.06 µM
HOP-62
  TGI: 1.06 µM
HOP-62; Homo sapiens
  GI50: 0.187 µM
HOP-62; [3]
  CC50: 19.2 µM
HT29
  TGI: 0.716 µM
HT29; Homo sapiens, HT-29
  GI50: 0.118 µM
HT29; Homo sapiens, HT-29, read-out: LC50 (the source's name)
  CC50: 68.1 µM
IGROV1; Homo sapiens, IGROV-1
  GI50: 0.183 µM
IGROV1; Homo sapiens, IGROV-1, read-out: LC50 (the source's name)
  CC50: 2.39 µM
IGROV1
  TGI: 0.533 µM
MALME-3M; Homo sapiens
  GI50: 0.0375 µM
MALME-3M; [3]
  CC50: > 100 µM
MALME-3M
  TGI: 0.907 µM
MDA-MB-468; Homo sapiens
  GI50: 0.196 µM
MDA-MB-468; [3]
  CC50: 6.31 µM
MDA-MB-468
  TGI: 1.15 µM
MOLT-4; Homo sapiens
  GI50: 0.317 µM
MOLT-4; [3]
  CC50: > 100 µM
MOLT-4
  TGI: >100 µM
OVCAR-5; Homo sapiens
  GI50: 0.0602 µM
OVCAR-5; [3]
  CC50: 2.58 µM
OVCAR-5
  TGI: 0.316 µM
PC-3; Homo sapiens
  GI50: 0.24 µM
PC-3; [3]
  CC50: > 100 µM
PC-3
  TGI: 21 µM
RXF 393; Homo sapiens
  GI50: 0.112 µM
RXF 393; [3]
  CC50: 0.998 µM
RXF 393
  TGI: 0.334 µM
SF-295; Homo sapiens
  GI50: 0.0603 µM
SF-295; [3]
  CC50: 2.43 µM
SF-295
  TGI: 0.34 µM
SK-MEL-28; Homo sapiens
  GI50: 0.406 µM
SK-MEL-28; [3]
  CC50: > 100 µM
SK-MEL-28
  TGI: 2.74 µM
SK-MEL-2; Homo sapiens
  GI50: 0.433 µM
SK-MEL-2; [3]
  CC50: 34.9 µM
SK-MEL-2
  TGI: 3.89 µM
SW-620; Homo sapiens
  GI50: 0.147 µM
SW-620; [3]
  CC50: > 100 µM
SW-620
  TGI: 11.2 µM
T-47D
  TGI: 0.445 µM
T-47D; Homo sapiens, T47D
  GI50: 0.121 µM
T-47D; Homo sapiens, T47D, read-out: LC50 (the source's name)
  CC50: > 100 µM
U251; Homo sapiens, U-251
  GI50: 0.199 µM
U251; Homo sapiens, U-251, read-out: LC50 (the source's name)
  CC50: 3.76 µM
U251
  TGI: 0.82 µM
UACC-257; Homo sapiens
  GI50: 0.127 µM
UACC-257; [3]
  CC50: > 100 µM
UACC-257
  TGI: 1.65 µM
HUVEC; HUVEC (human normal cells), crystal violet assay, 48 h
  GI50: 3.57 ± 0.45 µM
HUVEC; HUVEC versus cancer cells
  folds less sensitive against normal cells (safety margin): 20–40 folds
[1]; HeLa and HCT116 cells, relative to SAHA
  times more potent than SAHA in HDAC activity inhibition: 9–30 times and 10–30 times
[1]; HeLa nuclear extract
  IC50: 0.0111 µM
[2]
  body weight and other adverse effects: No significant difference in body weight or other adverse effects
Recombinant human HDAC1
  IC50: 0.053 ± 0.012 µM
